Assay results taken from patent US9321760B2 (Merck Patent GmbH, priority 2011, dated 2016).

Target: P70S6K (T412E mutant) (Homo sapiens (Human), UniProt P23443, T412E)
Test: P70S6K enzyme assay
Assay type: biochemical
Conditions: 3 nM P70S6K T412E mutant, 24 μM ATP, 1 μM FITC-AHA-AKRRRLSSLRA-OH substrate peptide, 90 min at 25° C.
Summary of the method: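 P70S6K T412E mutant (3 nM) with 24 μM ATP and 1 μM FITC-labelled S6-derived peptide in Hepes pH 7.5, MgCl2, DTT, Brij buffer; 90 min at 25° C, stopped with EDTA. Phosphorylated product and substrate peptides separated by microfluidic mobility shift; IC50 values derived.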

Sequence of P70S6K (T412E mutant) (P23443 whole entry T412E): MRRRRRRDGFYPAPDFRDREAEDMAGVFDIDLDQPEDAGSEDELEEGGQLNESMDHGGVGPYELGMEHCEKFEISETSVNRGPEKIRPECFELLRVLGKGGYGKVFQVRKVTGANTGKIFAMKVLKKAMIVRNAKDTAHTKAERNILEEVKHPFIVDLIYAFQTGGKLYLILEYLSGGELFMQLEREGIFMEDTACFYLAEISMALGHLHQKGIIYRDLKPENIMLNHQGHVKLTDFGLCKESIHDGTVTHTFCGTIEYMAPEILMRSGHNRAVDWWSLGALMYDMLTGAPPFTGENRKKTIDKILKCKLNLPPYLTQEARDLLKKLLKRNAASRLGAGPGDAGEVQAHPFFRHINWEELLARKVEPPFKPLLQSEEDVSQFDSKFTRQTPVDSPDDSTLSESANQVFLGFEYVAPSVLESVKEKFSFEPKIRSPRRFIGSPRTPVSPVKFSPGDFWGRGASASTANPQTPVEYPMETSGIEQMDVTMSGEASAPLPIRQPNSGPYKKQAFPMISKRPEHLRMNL

SMILES	IC50
COC(=O)c1ccc([C@H](CN2CCC2)N2CCN(c3ncnc(N)c3-c3ccc(F)cc3)CC2)cc1 [Example 111, 4-((R)-1-{4-[6-Amino-5-(4-fluoro-phenyl)-pyrimidin-4-yl]-piperazin-1-yl}-2-azetidin-1-yl-ethyl)-benzoic acid methyl ester]	190 nM
CC[C@H](NC(=O)C1(N)CCN(c2ncnc(N)c2C#N)CC1)c1ccc(Cl)cc1 [Example 219, 4-Amino-1-(6-amino-5-cyano-pyrimidin-4-yl)-piperidine-4-carboxylic acid [(S)-1-(4-chloro-phenyl)-propyl]-amide]	140 nM
NCC(c1ccc(C(F)(F)F)cc1)N1CCN(c2ncnc(N)c2CN2CC(F)C2)CC1 (stereo not shown) [Example 45, 6-(4-(2-amino-1-(4-(trifluoromethyl)phenyl)ethyl)piperazin-1-yl)-5-((3-fluoroazetidin-1-yl)methyl)pyrimidin-4-amine]	210 nM
Cn1cc(-c2c(N)ncnc2N2CCC(C(CN)c3ccc(C(F)(F)F)cc3)CC2)cn1 (stereo not shown) [Example 58, 6-(4-(2-amino-1-(4-(trifluoromethyl)phenyl)ethyl)piperidin-1-yl)-5-(1-methyl-1H-pyrazol-4-yl)pyrimidin-4-amine]	31 nM
NCC(c1ccc(C(F)(F)F)nc1)N1CCN(c2ncnc(N)c2-c2ccc(F)cc2)CC1 (stereo not shown) [Example 194, 6-{4-[2-Amino-1-(6-trifluoromethyl-pyridin-3-yl)-ethyl]-piperazin-1-yl}-5-(4-fluoro-phenyl)-pyrimidin-4-ylamine]	9.8 nM
COC(=O)c1ccc([C@@H](CN2CCC2)N2CCN(c3ncnc(N)c3-c3ccc(F)cc3)CC2)cc1 [Example 110, 4-((S)-1-{4-[6-Amino-5-(4-fluoro-phenyl)-pyrimidin-4-yl]-piperazin-1-yl}-2-azetidin-1-yl-ethyl)-benzoic acid methyl ester]	450 nM
N#Cc1c(N)ncnc1N1CCC(N)(C(=O)N[C@@H](CCO)c2ccc(C(F)(F)F)cc2)CC1 [Example 230, 4-Amino-1-(6-amino-5-cyano-pyrimidin-4-yl)-piperidine-4-carboxylic acid [(S)-3-hydroxy-1-(4-trifluoromethyl-phenyl)-propyl]-amide]	18000 nM
Nc1ncnc(N2CCN(C(CN3CCCCC3)c3cccc(C(F)(F)F)c3)CC2)c1Br (stereo not shown) [Example 70, 5-Bromo-6{4-[1-(3-trifluoromethyl-phenyl)-2-piperidin-1-yl-ethyl]-piperazin-1-yl}-pyrimidin-4-ylamine]	> 1000 nM
NC[C@H](c1ccc(C(F)(F)F)cc1)N1CCN(c2ncnc(N)c2-c2ccc(F)cc2)CC1 [Example 3, 6-{4-[(S)-2-Amino-1-(4-trifluoromethyl-phenyl)-ethyl]-piperazin-1-yl}-5-(4-fluoro-phenyl)-pyrimidin-4-ylamine]	2.6 nM
Nc1ncnc(N2CCN(C(CN3CCCC3)c3ccc(F)cc3)CC2)c1-c1ccc(F)cc1 (stereo in doubt) [Example 83, (S)-5-(4-Fluorophenyl)-6{4-[1-(4-fluorophenyl)-2-pyrrolidin-1-yl-ethyl]-piperazin-1-yl}-pyrimidin-4-ylamine]	1000 nM
N#Cc1ccc(-c2c(N)ncnc2N2CCC(N)(CNC(=O)c3ccc(F)cc3F)C2)cc1 (stereo not shown) [Example 199, N-{3-Amino-1-[6-amino-5-(4-cyano-phenyl)-pyrimidin-4-yl]-pyrrolidin-3-ylmethyl}-2,4-difluoro-benzamide]	11 nM
COC(=O)c1ccc(-c2c(N)ncnc2N2CCN(C(CN(C)C)c3ccc(C(F)(F)F)cc3)CC2)cc1 (stereo not shown) [Example 23, Methyl 4-(4-amino-6-(4-(2-(dimethylamino)-1-(4-(trifluoromethyl)phenyl)ethyl)piperazin-1-yl)pyrimidin-5-yl)benzoate]	12 nM
Nc1ncnc(N2CCN(Cc3cc(Cl)c(Cl)cc3OC3CNC3)CC2)c1-c1ccc(F)cc1 [Example 62, 6-(4-(2-(azetidin-3-yloxy)-4,5-dichlorobenzyl)piperazin-1-yl)-5-(4-fluorophenyl)pyrimidin-4-amine]	980 nM
NCC(c1cccnc1)N1CCN(c2ncnc(N)c2-c2ccc(F)cc2)CC1 (stereo not shown) [Example 193, 6-[4-(2-Amino-1-pyridin-3-yl-ethyl)-piperazin-1-yl]-5-(4-fluoro-phenyl)-pyrimidin-4-ylamine]	31 nM
Nc1ncnc(N2CCC(Cc3ccc(Cl)cc3)CC2)c1-c1ccc(F)cc1 [Example 49, 5-(4-Fluorophenyl)-6{4-(4-chlorobenzyl)-piperidin-1-yl}pyrimidin-4-amine]	16 nM
Nc1ncnc(N2CCC(Cc3ccc(-c4ccc(F)cc4)cc3)CC2)c1-c1ccc(F)cc1 [Example 50, 5-(4-Fluorophenyl)-6{4-(4-(4-fluorophenyl)benzyl)-piperidin-1-yl}pyrimidin-4-amine]	450 nM
COc1ccc([C@@H](CN2CCC2)N2CCN(c3ncnc(N)c3-c3ccc(F)cc3)CC2)cc1F [Example 105, 6-{4-[(S)-2-Azetidin-1-yl-1-(3-fluoro-4-methoxy-phenyl)-ethyl]-piperazin-1-yl}-5-(4-fluoro-phenyl)-pyrimidin-4-ylamine]	640 nM

Further lines, results first:

IC50	SMILES
25 nM	Nc1ncnc(N2CCC(N)(CNC(=O)c3ccc(F)cc3F)C2)c1-c1ccncc1 (stereo not shown) [Example 205, N-[3-Amino-1-(6-amino-5-pyridin-4-yl-pyrimidin-4-yl)-pyrrolidin-3-ylmethyl]-2,4-difluoro-benzamide]
> 1000 nM	Nc1cc(N2CCN(C(CN3CCCC3)c3cccc(C(F)(F)F)c3)CC2)ncn1 (stereo not shown) [Example 73, 6-{4-[1-(3-trifluoromethyl-phenyl)-2-pyrrolidin-1-yl-ethyl]-piperazin-1-yl}-pyrimidin-4-ylamine]
140 nM	N#CC(c1ccc(C(F)(F)F)nc1)N1CCN(c2ncnc(N)c2-c2ccc(F)cc2)CC1 (stereo not shown) [Example 189, {4-[6-Amino-5-(4-fluoro-phenyl)-pyrimidin-4-yl]-piperazin-1-yl}-(6-trifluoromethyl-pyridin-3-yl)-acetonitrile]
4.7 nM	NC[C@@H](c1ccc(C(F)(F)F)cc1)C1CCN(c2ncnc(N)c2-c2cn[nH]c2)CC1 (single isomer, unassigned) [Example 57]
33 nM	CN(C)CCNC(c1ccc(F)cc1)C1CCN(c2ncnc(N)c2-c2ccc(F)cc2)CC1 (stereo not shown) [Example 150, 1-(6-amino-5-(4-fluorophenyl)pyrimidin-4-yl)(4-((4-fluorophenyl))methyl)-dimethylethane-1,2-diamine]
4300 nM	CS(=O)(=O)c1ccc([C@H](CN2CCC2)N2CCN(c3ncnc(N)c3-c3cn[nH]c3)CC2)cc1 [Example 93, 6-{4-[(R)-2-Azetidin-1-yl-1-(4-methanesulfonyl-phenyl)-ethyl]-piperazin-1-yl}-5-(1H-pyrazol-4-yl)-pyrimidin-4-ylamine]
50 nM	Nc1ncnc(N2CCN(C(CN3CCCCC3)c3cccc(F)c3)CC2)c1-c1ccc(F)cc1 (stereo not shown) [Example 64, 5-(4-Fluorophenyl)-6{4-[1-(3-fluoro-phenyl)-2-piperidin-1-yl-ethyl]-piperazin-1-yl}-pyrimidin-4-ylamine]
> 1000 nM	Nc1cc(N2CCN(C(CN3CCCCC3)c3cccc(F)c3)CC2)ncn1 (stereo not shown) [Example 76, 6-{4-[1-(3-fluorophenyl)-2-piperidin-1-yl-ethyl]-piperazin-1-yl}-pyrimidin-4-ylamine]
1400 nM	Nc1ncnc(N2CCN([C@H](CN3CCC3)c3cccc(F)c3)CC2)c1-c1ccc(F)cc1 [Example 102, 6-{4-[(S)-2-Azetidin-1-yl-1-(3-fluoro-phenyl)-ethyl]-piperazin-1-yl}-5-(4-fluoro-phenyl)-pyrimidin-4-ylamine]
360 nM	Nc1ncnc(N2CCN(C(CN3CCC3)c3ccc4c(c3)CCCC4)CC2)c1-c1ccc(F)cc1 (stereo not shown) [Example 123, 6-{4-[2-Azetidin-1-yl-1-(5,6,7,8-tetrahydro-naphthalen-2-yl)-ethyl]-piperazin-1-yl}-5-(4-fluoro-phenyl)-pyrimidin-4-ylamine]
530 nM	NC(=O)c1c(N)ncnc1N1CCC(N)(CNC(=O)c2ccc(F)cc2F)C1 (stereo not shown) [Example 197, 4-Amino-6-{3-amino-3-[(2,4-difluoro-benzoylamino)-methyl]-pyrrolidin-1-yl}-pyrimidine-5-carboxamide]
230 nM	N#CC(c1cccnc1)N1CCN(c2ncnc(N)c2-c2ccc(F)cc2)CC1 (stereo not shown) [Example 190, {4-[6-Amino-5-(4-fluoro-phenyl)-pyrimidin-4-yl]-piperazin-1-yl}-pyridin-3-yl-acetonitrile]
140 nM	N#Cc1c(N)ncnc1N1CCC(N)(C(=O)N[C@@H](CC(N)=O)c2ccc(Cl)cc2)CC1 [Example 221, 4-Amino-1-(6-amino-5-cyano-pyrimidin-4-yl)-piperidine-4-carboxylic acid [(S)-2-carbamoyl-1-(4-chloro-phenyl)-ethyl]-amide]
24 nM	Nc1ncnc(N2CCN(C(CN3CCCCC3)c3ccc(F)cc3)CC2)c1-c1ccc(F)cc1 (stereo not shown) [Example 67, 5-(4-Fluorophenyl)-6{4-[1-(4-fluoro-phenyl)-2-piperidin-1-yl-ethyl]-piperazin-1-yl}-pyrimidin-4-ylamine]
> 100000 nM	COC(=O)Cn1cc(-c2c(N)ncnc2N2CCN(C(CN3CCC3)c3cccc(C#N)c3)CC2)cn1 (stereo not shown) [Example 130, [4-(4-Amino-6-{4-[2-azetidin-1-yl-1-(3-cyano-phenyl)-ethyl]-piperazin-1-yl}-pyrimidin-5-yl)-pyrazol-1-yl]-acetic acid methyl ester]
200 nM	N#CC(C1CCCCC1)N1CCN(c2ncnc(N)c2-c2ccc(F)cc2)CC1 (stereo not shown) [Example 191, {4-[6-Amino-5-(4-fluoro-phenyl)-pyrimidin-4-yl]-piperazin-1-yl}-cyclohexyl-acetonitrile]
> 1000 nM	Nc1cc(N2CCN(C(CN3CCCCC3)c3ccc(F)cc3)CC2)ncn1 (stereo not shown) [Example 79, 6-{4-[1-(4-fluoro-phenyl)-2-piperidin-1-yl-ethyl]-piperazin-1-yl}-pyrimidin-4-ylamine]
